Data taken from patent US20260167679A1, “FUSION PROTEIN TARGETING MITOCHONDRIA, METHOD OF MAKING AND USE THEREOF” (UNIVERSITY OF ROCHESTER, priority 2020, published 2026).

What was measured:
Type in all cases: in vivo, Caenorhabditis elegans
[1] = test system: C. elegans; experiment: ETC inhibitor assays, survival of animals
Method: Experiments were performed on at least three separate days, using 15-100 young adult animals per plate. Seeded plates were supplemented with rotenone (50 μM final concentration), antimycin A (50 μM final concentration), or oligomycin A (31 μM final concentration) 24 h before animals were transferred onto them. For azide toxicity, animals were placed in M9 buffer with 250 mM azide. Control plates were kept in the dark, and experimental plates were exposed to 1 Hz light (Quantum LED, 0.02 mW/mm^2) for the duration of the experiment. For all toxins, animals that were moving or those that moved in response to a light touch to the head were scored as alive. For rotenone, surviving animals were scored after 5 h. For antimycin A, animals were scored 16 h after exposure. For azide, animals were exposed for 1 h in M9 and allowed to recover for 1 h on a seeded culture plate and then survival was scored. Azide experimental plates were exposed to light (XCite LED, 0.19 mW/mm^2) for the duration of azide treatment and recovery. […]. For oligomycin A, animals were scored 18 h after exposure.
(§1) Experiments were carried out using a hypoxic chamber (Coy Laboratory Products, 5%/95% H2/N2 gas, palladium catalyst) at 26° C. with 50-100 animals per plate. O2 was <0.01%. Hypoxic preconditioning (PC) duration was 4 h, and control animals were incubated at 26° C. in room air for the same time. 1 Hz illumination (Quantum LED, 0.02 mW/mm^2) was carried out during PC period or during the hypoxic period. Hypoxic exposure was for 18.5, 21 h after PC. Twenty-four hours after hypoxia exposure, animals that were moving or those that moved in response to a light touch to the head were scored as alive. Data from days where PC was at least 15% effective for both +ATR and −ATR were used. Animals supplemented with ATR were allowed to lay eggs onto plates with no ATR that were subsequently used for HR experiments to minimize confounding effects of ATR. ATR from the parent animal was sufficient to provide active mtON in progeny as tested by the azide toxin assay described above. […] FCCP dissolved in ethanol was deposited onto seeded NGM plates.

[2] = test system: C. elegans; experiment: Hypoxia and reoxygenation with hypoxic preconditioning; conditions: +ATR, baseline survival, n=12 independent experiments
Method: as §1

[3] = test system: C. elegans; experiment: Lifespan of mtON-expressing worms
Excerpt: Light treatment began at day 1 of adulthood for all experiments, a, Survival curves of mtON-expressing animals (extrachromosomal array). […] One-way ANOVA with Tukey's test; n=30 animals for day 4 conditions and 40 animals for day 10. […] The dotted arrow represents the molecular mechanisms to be investigated that link Δψm to aged physiology.
A) survival curve with the same conditions as FIG. 15B, but with light intensity (0.005 mW/cm2) below the threshold for mtON activation (0.01 mW/cm2). […] B) Survival curves of mtON-expressing animals versus mtON-expressing animals in a long-lived genetic background containing a constitutively active AMPK mutation.
Strain APW32 expresses mtON as an extrachromosomal array (mtON ext. chr. array), and strain APW273 expresses mtON in single copy through CRISPR/Cas9 genome integration (mtON CRISPR). See methods section for genotype details. Light intensity was varied to maintain temperature as best as possible, and proximal temperature readings directly adjacent to assay plates are reported to show local temperature variability from different incubators and from different light sources. All incubators were set to 20° C.

SMILES | survival ([1]; 50 μM rotenone for 5 hours, +ATR −light (ATR alone)) | survival ([1]; azide toxin assay, progeny of ATR-supplemented parents, +ATR −light) [%] | survival after hypoxia and reoxygenation (baseline) [2] | lifespan ([3]; ATR and light in wild-type animals) | lifespan or physiology ([3]; ATR supplementation alone) | lifespan ([3]; FCCP on its own)
CC1=C(/C=C/C(C)=C/C=C/C(C)=C/C=O)C(C)(C)CCC1 [ATR, all trans-retinal, reference compound] | protective | 27.5 | 49.7+/−20.3% | did not affect lifespan | does not affect lifespan or physiology | –
N#CC(C#N)=NNc1ccc(OC(F)(F)F)cc1 [FCCP, carbonyl cyanide p-(trifluoromethoxy)phenylhydrazone, reference compound] | – | – | – | – | – | no effect on lifespan
